# Reference: the supplement of paper PMC10307832
# Key:
# Assay in all cases: relative viability (nuclei count vs DMSO), 5 days (fraction); higher = more cells survive
# [1] = compound: C1=CC2=NC=CN=C2C=C1/C=C/3\C(=O)NC(=O)S3 + Cc1nc(NC(=O)N2CCC[C@H]2C(N)=O)sc1-c1ccnc(C(C)(C)C(F)(F)F)c1 [Alpelisib] (partner 2 µM)
# How it was run: (§1)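 After 5 days of treatment, lung cancer cells in 1536-well plates were fixed and stained in a single step (final 0.05% Triton X-100, 1% formaldehyde, 1 ug/ml Hoechst) and their nuclei counted on 4× images. Treatment had been applied by pin tool the day after seeding as one drug alone or as a fixed anchor-drug dose with five library-drug doses (not always all listed) in √10 steps. Relative viability is the nuclei count of treated wells divided by that of vehicle wells, and values are medians of duplicate plates.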
# [2] = compound: C1=CC2=NC=CN=C2C=C1/C=C/3\C(=O)NC(=O)S3 + O=C(c1cc(Cc2n[nH]c(=O)c3ccccc23)ccc1F)N1CCN(C(=O)C2CC2)CC1 [Olaparib] (partner 8 µM)
# How it was run: as §1
# BGJ398 + Bortezomib = compound: CCN1CCN(c2ccc(Nc3cc(N(C)C(=O)Nc4c(Cl)c(OC)cc(OC)c4Cl)ncn3)cc2)CC1 [BGJ398] + CC(C)C[C@H](NC(=O)[C@H](Cc1ccccc1)NC(=O)c1cnccn1)B(O)O [Bortezomib] (partner 0.002 µM)
# How it was run: as §1
# BGJ398 + Linsitinib = compound: CCN1CCN(c2ccc(Nc3cc(N(C)C(=O)Nc4c(Cl)c(OC)cc(OC)c4Cl)ncn3)cc2)CC1 [BGJ398] + C[C@]1(O)C[C@@H](c2nc(-c3ccc4ccc(-c5ccccc5)nc4c3)c3c(N)nccn32)C1 [Linsitinib] (partner 1 µM)
# How it was run: as §1
Cell Line,relative viability ([1]; first compound 0.02 µM),relative viability ([1]; first compound 0.06325 µM),relative viability ([1]; first compound 0.2 µM),relative viability ([1]; first compound 0.6325 µM),relative viability ([1]; first compound 2 µM),relative viability ([2]; first compound 0.02 µM),relative viability ([2]; first compound 0.06325 µM),relative viability ([2]; first compound 0.2 µM),relative viability ([2]; first compound 0.6325 µM),relative viability ([2]; first compound 2 µM),relative viability (BGJ398 + Bortezomib; first compound 0.01 µM),relative viability (BGJ398 + Bortezomib; first compound 0.03162 µM),relative viability (BGJ398 + Bortezomib; first compound 0.1 µM),relative viability (BGJ398 + Bortezomib; first compound 0.3162 µM),relative viability (BGJ398 + Bortezomib; first compound 1 µM),relative viability (BGJ398 + Linsitinib; first compound 0.01 µM),relative viability (BGJ398 + Linsitinib; first compound 0.03162 µM),relative viability (BGJ398 + Linsitinib; first compound 0.1 µM),relative viability (BGJ398 + Linsitinib; first compound 0.3162 µM),relative viability (BGJ398 + Linsitinib; first compound 1 µM)
NCI-H322M,0.835,0.713,0.74,0.852,0.67,0.733,0.827,0.767,0.801,0.641,1.14,0.989,1.21,1.21,1.24,0.863,0.788,0.978,0.935,0.999
NCI-H1299,1.07,1.1,1.05,1.02,0.993,1.01,0.961,1.01,0.928,1.01,0.982,1.06,1.02,1.01,1.01,0.926,1.03,0.974,0.928,0.727
NCI-H2228,0.814,1.12,0.802,0.674,0.664,0.666,0.599,0.616,0.654,0.649,1.34,1.08,0.782,0.942,0.925,0.63,0.438,0.19,0.852,0.719
IA-LM,0.586,0.713,0.64,0.749,0.764,0.404,1.02,0.797,0.836,0.871,0.741,0.928,0.905,0.822,0.788,0.532,0.499,0.501,0.496,0.481
NCI-H647,0.865,1.89,1.28,1.06,1.14,0.438,0.532,0.537,0.51,0.496,0.986,1.12,1.24,0.864,0.793,1.06,1.29,1.26,1.17,1.08
NCI-H2085,0.991,1.01,1.04,0.885,1.02,0.813,0.73,0.798,0.821,0.754,1.02,1.07,1.02,0.983,1.15,0.872,0.943,0.975,1.01,0.934
SW 1573,0.54,0.852,0.791,0.636,0.616,0.501,0.65,0.434,0.405,0.387,0.948,1.05,0.909,0.964,0.91,0.859,0.894,0.886,0.812,0.933
NCI-H727,0.647,0.571,0.556,0.653,0.346,0.852,0.579,0.637,0.695,0.538,0.899,0.822,0.796,0.882,0.774,0.345,0.281,0.286,0.291,0.301
NCI-H441,0.714,0.844,–,0.876,0.636,0.539,0.708,0.559,0.481,0.345,0.398,0.991,0.861,0.4,0.472,0.526,0.569,0.7,0.486,0.484
LOU-NH91,0.721,0.762,0.676,0.738,0.728,0.845,0.925,0.892,0.883,0.85,0.483,0.498,0.547,0.54,0.472,0.903,0.539,0.933,0.557,0.911
NCI-H3122,0.737,0.854,0.873,0.766,0.602,0.552,0.679,0.568,0.556,0.619,1.04,0.998,1,1.02,1.09,1,1.06,0.997,1.05,1.02
NCI-H460,0.508,0.514,0.464,0.429,0.379,0.391,0.361,0.438,0.45,0.397,1.17,1.23,1.45,1.04,1.06,0.714,0.838,0.916,0.895,0.92
NCI-H650,1.08,1.04,1.06,1.1,1.02,0.422,0.397,0.466,0.444,0.267,0.777,0.909,0.845,0.837,0.627,0.822,1.01,0.959,0.875,0.909
NCI-H661,0.651,0.614,0.952,0.732,0.469,0.682,0.733,0.733,0.746,0.715,0.7,0.905,0.799,0.767,1,0.531,0.77,0.644,0.678,0.548
NCI-H1734,0.707,–,0.741,0.622,0.54,0.613,–,0.673,0.562,0.226,0.95,0.889,0.933,0.805,0.825,0.816,0.873,0.907,0.864,0.917
LXF-289,0.999,1.01,1.06,0.984,1.07,0.993,0.997,1.06,1.01,1.01,0.951,0.918,0.918,0.888,0.896,0.944,0.886,0.883,0.84,0.899
